From PubChem BioAssay AID624473 (Sanford-Burnham Center for Chemical Genomics, 2012)
Where “and” joins values, the source holds several entries; their conditions need not be identical. Equal entries are not always repeated. Calls of active or inactive are those of the source.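 Rule for the calls: active = IC50 at or below 20 µM in the dose response; inactive = the rest.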

Tested on: HL-1 cardiomyocytes, 2-deoxyglucose injury, ATPlite viability, 2 h
Test: protection of HL-1 cells from ATP loss, SAR follow-up, 2-deoxyglucose, set 2 (AID 624473)

For `COc1cccc(NC(=O)c2cc(-c3cc(OC)c(OC)c(OC)c3)nc3ccccc23)c1`, the IC50 was > 79 µM (inactive).
With `COc1ccc(-c2cc(C(=O)Nc3cccc(C(C)=O)c3)c3ccccc3n2)cc1` the IC50 was > 79 µM (inactive).
Molecule `COc1ccc2c(c1OC)C(=O)N1c3ccccc3C(=O)N(c3cccc(C)c3)C21` (stereo not given) has an IC50 of 16.5 µM.
`COc1cc(-c2cc(C(=O)Nc3ccc(C(C)=O)cc3)c3ccccc3n2)cc(OC)c1OC` showed an IC50 of 6.65 µM.
With `COc1ccc2c(c1OC)C(=O)N1c3ccccc3C(=O)N(c3cccc(Cl)c3)C21` (stereo not given) the IC50 was 7.57 µM.
With `COc1cccc(N2C(=O)c3ccccc3N3C(=O)c4ccccc4C23)c1` (stereo not given) the IC50 was > 79 µM (inactive).
With `O=C1c2ccccc2N2C(=O)c3ccccc3C2N1c1ccccc1` (stereo not given) the IC50 was > 79 µM (inactive).
`COc1ccc2c(c1OC)C(=O)N1c3ccccc3C(=O)N(c3ccc(Br)cc3)C21` (stereo not given) gave an IC50 of 1.95 µM.
`COc1cc(-c2cc(C(=O)Nc3ccccc3)c3ccccc3n2)cc(OC)c1OC` showed an IC50 of 8.04 µM.
With `O=C1c2ccccc2N2C(=O)c3ccccc3C2N1c1cccc(Br)c1` (stereo not given) the IC50 was > 79 µM (inactive).
For `COc1cc(-c2cc(C(=O)Nc3cccc(C(C)=O)c3)c3cc(Cl)ccc3n2)cc(OC)c1OC`, the IC50 was > 79 µM (inactive).
In the case of `COc1cc(-c2cc(C(=O)Nc3cccc(C(C)=O)c3)c3ccccc3n2)cc(OC)c1OC`, the IC50 is reported as 7.15 µM and 10.3 µM.
With `CCN(CC(=O)Nc1ccc(OC)cc1)C(=O)c1cc(-c2cccs2)nn1-c1ccccc1` the IC50 was 8.33 µM and 9.6 µM.
In the case of `COc1ccc2c(c1OC)C(=O)N1c3ccccc3C(=O)N(c3ccc(C)cc3)C21` (stereo not given), the IC50 is reported as 3.03 µM.
`COc1cc(-c2cc(C(=O)Nc3cccc(Cl)c3)c3ccccc3n2)cc(OC)c1OC` was tested, and the IC50 was > 79 µM (inactive).
`COc1ccc2c(c1OC)C(=O)N1c3ccccc3C(=O)N(Cc3ccccc3Cl)C21` (stereo not given) showed an IC50 of 4 µM.
`COc1cc(-c2cc(C(=O)Nc3cccc(F)c3)c3ccccc3n2)cc(OC)c1OC` was tested, and the IC50 was > 79 µM (inactive).
`COc1cc(-c2cc(C(=O)Nc3cccc(C(F)(F)F)c3)c3ccccc3n2)cc(OC)c1OC` was tested, and the IC50 was > 79 µM (inactive).
For `COc1ccc2c(c1OC)C(=O)N1c3ccccc3C(=O)N(Cc3cccc(Cl)c3)C21` (stereo not given), the IC50 was 8.52 µM.
`COc1cccc(CNC(=O)c2cc(-c3cc(OC)c(OC)c(OC)c3)nc3ccccc23)c1` was tested, and the IC50 was 12.2 µM.
`CCN(CC(=O)Nc1ccc(OC)cc1)C(=O)c1cc(-c2cc(OC)c(OC)c(OC)c2)nc2ccccc12` was tested, and the IC50 was 22.6 µM (inactive).
In the case of `COc1ccc(NC(=O)c2cc(-c3cc(OC)c(OC)c(OC)c3)nc3ccccc23)cc1`, the IC50 is reported as > 79 µM (inactive).
`CCOC(=O)c1cccc(NC(=O)c2cc(-c3cc(OC)c(OC)c(OC)c3)nc3ccccc23)c1` showed an IC50 of 4.29 µM.
`COc1cc(-c2cc(C(=O)Nc3cccc(C)c3)c3ccccc3n2)cc(OC)c1OC` was tested, and the IC50 was > 79 µM (inactive).
With `COc1ccc2c(c1OC)C(=O)N1c3ccccc3C(=O)N(c3cccc(Br)c3)C21` (stereo not given) the IC50 was 3.64 µM and 34.8 µM (inactive).
`COc1cccc(N2C(=O)c3ccccc3N3C(=O)c4c(ccc(OC)c4OC)C23)c1` (stereo not given) gave an IC50 of 15.6 µM.
`COc1ccc(N2C(=O)c3ccccc3N3C(=O)c4c(ccc(OC)c4OC)C23)cc1` (stereo not given) was tested, and the IC50 was 18.2 µM.
`COc1ccc2c(c1OC)C(=O)N1c3ccccc3C(=O)N(c3ccccc3)C21` (stereo not given) gave an IC50 of 5.09 µM.
For `COc1ccc2c(c1OC)C(=O)N1c3ccccc3C(=O)N(c3ccc(C(C)(C)C)cc3)C21` (stereo not given), the IC50 was > 79 µM (inactive).
`COc1ccc2c(c1OC)C(=O)N1c3ccccc3C(=O)N(c3cccc(F)c3)C21` (stereo not given) gave an IC50 of 13.9 µM.
In the case of `COc1ccc(-c2cc(C(=O)Nc3cccc(C(C)=O)c3)c3ccccc3n2)cc1OC`, the IC50 is reported as 19.8 µM (inactive).
For `COc1cccc(CNC(=O)c2cc(-c3ccc(OC)c(OC)c3)nc3ccccc23)c1`, the IC50 was 9.42 µM.
`COc1cccc(-c2cc(C(=O)Nc3cccc(C(C)=O)c3)c3ccccc3n2)c1` gave an IC50 of 9.47 µM.
For `COc1ccc2c(c1OC)C(=O)N1c3ccccc3C(=O)N(c3cccc(C(F)(F)F)c3)C21` (stereo not given), the IC50 was 19.8 µM.
`CC(=O)c1cccc(NC(=O)c2cc(-c3ccccc3)nc3ccccc23)c1` was tested, and the IC50 was 14 µM.
